The subject of assay [1] is T47D (PI3Kα-H1047R) cell line. As to the kind of experiment: HTRF phospho-AKT(S473) cell assay in T47D cells. To be noted: Homo sapiens, 2 hours compound incubation. The format is cell-based, human. A digest of the protocol:
(§1)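 HTRF read-out of phospho-AKT(S473) in lysates gave IC50 values after 2 h compound exposure at 37° C. Dose series was 12 points at 1:3, topping at 5 μM for T47D and 10 μM for SKBR3. Only SKBR3 received 70 ng/ml PDGF-BB during the last 15 minutes.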
(TR-FRET usually uses a lanthanide donor and a delayed reading to cut background.)

Assay [2] deals with SKBR3 (PI3Kα-Wild Type) cell line. As to the kind of experiment: HTRF phospho-AKT(S473) cell assay in SKBR3 cells. The format is cell-based, human. To be noted: Homo sapiens, SK-BR-3, 2 hours compound incubation, PDGF-BB stimulated. A digest of the protocol: as §1
The mark [3] stands for this setting: HTRF phospho-AKT(S473), T47D (PI3Kα-H1047R) cells.
Where [4] appears, read: HTRF phospho-AKT(S473), SKBR3 (PI3Kα-Wild Type) cells.
Where [5] appears, read: T47D (PI3Kα-H1047R) cells, HTRF phospho-AKT(S473).
Where [6] appears, read: SKBR3 (PI3Kα-Wild Type) cells, HTRF phospho-AKT(S473).
Setting [7] is: T47D (PI3Kα-H1047R) cell line, phospho-AKT(S473) HTRF.
[8] abbreviates: SKBR3 (PI3Kα-Wild Type) cell line, phospho-AKT(S473) HTRF.

By IC50 is commonly meant the point on the concentration scale where inhibition reaches its midpoint. A lower IC50 goes with higher potency.

On to `Cc1cc([C@@H](C)Nc2ccc(Cl)nc2C(=O)NS(C)(=O)=O)c2nc(-c3ccc([C@@H]4CN(C)CCO4)cc3)n(C)c(=O)c2c1` (relative stereo) [Compound 803, 6-chloro-3-(((R)-1-(3,6-dimethyl-2-(4-((R*)-4-methylmorpholin-2-yl)phenyl)-4-oxo-3,4-dihydroquinazolin-8-yl)ethyl)amino)-N-(methylsulfonyl) picolinamide], for which the IC50 in assay [1] (setting [3]) was less than 250 nM; in assay [2] (setting [4]), no less than 5000 nM.
With `Cc1cc([C@@H](C)Nc2ccc(Cl)nc2C(=O)NS(C)(=O)=O)c2nc(-c3cnc(-c4cnn(C)c4)c(Cl)c3)n(C)c(=O)c2c1` [Compound 292, (R)-6-chloro-3-((1-(2-(5-chloro-6-(1-methyl-1H-pyrazol-4-yl)pyridin-3-yl)-3,6-dimethyl-4-oxo-3,4-dihydroquinazolin-8-yl)ethyl)amino)-N-(methylsulfonyl) picolinamide], the IC50 in assay [1] (setting [5]) was less than 250 nM; in assay [2] (setting [6]), 1000 to 5000 nM.
As for `Cc1cc([C@@H](C)Nc2ccc(Cl)nc2C(=O)NS(C)(=O)=O)c2nc([C@H]3[C@@H]4CN(c5ccnc(C)n5)C[C@@H]43)n(C)c(=O)c2c1` [Compound 853, 6-chloro-3-(((R)-1-(3,6-dimethyl-2-((1R,5S,6r)-3-(2-methylpyrimidin-4-yl)-3-azabicyclo[3.1.0]hexan-6-yl)-4-oxo-3,4-dihydroquinazolin-8-yl)ethyl)amino)-N-(methylsulfonyl) picolinamide], the 50% inhibitory concentration (IC50) is 250 to 500 nM in assay [1] (setting [7]) and no less than 5000 nM in assay [2] (setting [8]).
With `CC(=O)N1CCN(c2ccc(-c3nc4c([C@@H](C)Nc5ccc(Cl)nc5C(=O)NS(C)(=O)=O)cc(C)cc4c(=O)n3C)cc2F)CC1(C)C` [Compound 804, (R)-3-((1-(2-(4-(4-acetyl-3,3-dimethylpiperazin-1-yl)-3-fluorophenyl)-3,6-dimethyl-4-oxo-3,4-dihydroquinazolin-8-yl)ethyl)amino)-6-chloro-N-(methylsulfonyl) picolinamide], the IC50 was less than 250 nM in assay [1] (setting [3]) and no less than 5000 nM in assay [2] (setting [4]).
For `COc1nc2cc(-c3nc4c([C@@H](C)Nc5ccc(Cl)nc5C(=O)NS(C)(=O)=O)cc(C)cc4c(=O)n3C)ccc2n1C` [Compound 849, (R)-6-chloro-3-((1-(2-(2-methoxy-1-methyl-1H-benzo[d]imidazol-5-yl)-3,6-dimethyl-4-oxo-3,4-dihydroquinazolin-8-yl)ethyl)amino)-N-(methylsulfonyl) picolinamide], the IC50 in assay [1] (setting [7]) is 250 to 500 nM; in assay [2] (setting [8]) it was no less than 5000 nM.
Turning to `Cc1cc([C@@H](C)Nc2ccc(Cl)nc2C(=O)NS(C)(=O)=O)c2nc(-c3ccc(O[C@@H]4CCN(C)CC4(F)F)nc3)n(C)c(=O)c2c1` [Compound 244, 6-chloro-3-(((R)-1-(2-(6-(((R)-3,3-difluoro-1-methylpiperidin-4-yl)oxy)pyridin-3-yl)-3,6-dimethyl-4-oxo-3,4-dihydroquinazolin-8-yl)ethyl)amino)-N-(methylsulfonyl) picolinamide], the half-inhibitory concentration (IC50) is less than 250 nM in assay [1] (setting [5]) and 1000 to 5000 nM in assay [2] (setting [6]).
On to `Cc1cc([C@@H](C)Nc2ccc(Cl)nc2C(=O)NS(C)(=O)=O)c2nc(N3CCC[C@@H](c4ccn(C(F)F)n4)C3)n(C)c(=O)c2c1` (relative stereo) [Compound 768, 6-chloro-3-(((R)-1-(2-((R*)-3-(1-(difluoromethyl)-1H-pyrazol-3-yl)piperidin-1-yl)-3,6-dimethyl-4-oxo-3,4-dihydroquinazolin-8-yl)ethyl)amino)-N-(methylsulfonyl) picolinamide], for which the IC50 in assay [1] (setting [3]) is 250 to 500 nM; in assay [2] (setting [4]) it was no less than 5000 nM.
In the same order, the values of `Cc1cc([C@@H](C)Nc2ccc(Cl)nc2C(=O)NS(C)(=O)=O)c2nc(N3CCC(c4ncccn4)CC3)n(C)c(=O)c2c1` [Compound 500, (R)-6-chloro-3-((1-(3,6-dimethyl-4-oxo-2-(4-(pyrimidin-2-yl)piperidin-1-yl)-3,4-dihydroquinazolin-8-yl)ethyl)amino)-N-(methylsulfonyl) picolinamide] are 250 to 500 nM and 1000 to 5000 nM.
As to `Cc1cc([C@@H](C)Nc2ccc(Cl)nc2C(=O)NS(C)(=O)=O)c2nc(N3Cc4cn(-c5ccc(C)nc5)nc4C3)n(C)c(=O)c2c1` [Compound 217, (R)-6-chloro-3-((1-(3,6-dimethyl-2-(2-(6-methylpyridin-3-yl)-2,6-dihydropyrrolo[3,4-c]pyrazol-5(4H)-yl)-4-oxo-3,4-dihydroquinazolin-8-yl)ethyl)amino)-N-(methylsulfonyl) picolinamide], the IC50 in assay [1] (setting [5]) was less than 250 nM; in assay [2] (setting [6]) it was 1000 to 5000 nM.
Take `Cc1cc([C@@H](C)Nc2ccc(Cl)nc2C(=O)NS(C)(=O)=O)c2nc(N3C[C@@H]4C[C@]4(c4cnc(C)cn4)C3)n(C)c(=O)c2c1` (relative stereo) [Compound 750, 6-chloro-3-(((R)-1-(3,6-dimethyl-2-((1R*,5R*)-1-(5-methylpyrazin-2-yl)-3-azabicyclo[3.1.0]hexan-3-yl)-4-oxo-3,4-dihydroquinazolin-8-yl)ethyl)amino)-N-(methylsulfonyl) picolinamide]: the half-inhibitory concentration (IC50) in assay [1] (setting [3]) was 250 to 500 nM; in assay [2] (setting [4]), no less than 5000 nM.
In the same order, the values of `Cc1cc([C@@H](C)Nc2ccc(Cl)nc2C(=O)NS(C)(=O)=O)c2nc(N3C[C@H]4C[C@@H]3CN4c3ccc(C#N)cn3)n(C)c(=O)c2c1` [Compound 601, 6-chloro-3-(((R)-1-(2-((1R,4R)-5-(5-cyanopyridin-2-yl)-2,5-diazabicyclo [2.2.1]heptan-2-yl)-3,6-dimethyl-4-oxo-3,4-dihydroquinazolin-8-yl)ethyl)amino)-N-(methylsulfonyl) picolinamide] are 250 to 500 nM and 1000 to 5000 nM.
Consider `Cc1cc([C@@H](C)Nc2ccc(Cl)nc2C(=O)NS(C)(=O)=O)c2nc(N3C[C@@H]4[C@H](C3)[C@H]4c3cnccn3)n(C)c(=O)c2c1` [Compound 439, 6-chloro-3-(((R)-1-(3,6-dimethyl-4-oxo-2-((1R,5S,6R)-6-(pyrazin-2-yl)-3-azabicyclo[3.1.0]hexan-3-yl)-3,4-dihydroquinazolin-8-yl)ethyl)amino)-N-(methylsulfonyl) picolinamide], for which the IC50 in assay [1] (setting [5]) was less than 250 nM; in assay [2] (setting [6]), 1000 to 5000 nM.
As for `Cc1cc([C@@H](C)Nc2ccc(Cl)nc2C(=O)NS(C)(=O)=O)c2nc(N3CCC(c4ncc(Cl)cn4)CC3)n(C)c(=O)c2c1` [Compound 499, (R)-6-chloro-3-((1-(2-(4-(5-chloropyrimidin-2-yl)piperidin-1-yl)-3,6-dimethyl-4-oxo-3,4-dihydroquinazolin-8-yl)ethyl)amino)-N-(methylsulfonyl) picolinamide], the IC50 was 250 to 500 nM in assay [1] (setting [3]) and no less than 5000 nM in assay [2] (setting [4]).
For the compound `CCn1c(N2C[C@@H]3[C@H](C2)[C@H]3c2cnc(C)nc2)nc2c([C@@H](C)Nc3ccc(Cl)nc3C(=O)NS(C)(=O)=O)cc(C)cc2c1=O` [Compound 584, 6-chloro-3-(((R)-1-(3-ethyl-6-methyl-2-((1R,5S,6S)-6-(2-methylpyrimidin-5-yl)-3-azabicyclo[3.1.0]hexan-3-yl)-4-oxo-3,4-dihydroquinazolin-8-yl)ethyl)amino)-N-(methylsulfonyl) picolinamide], the half-maximal inhibitory concentration (IC50) in assay [1] (setting [3]) was less than 250 nM; in assay [2] (setting [4]), 1000 to 5000 nM.
In the same order, the values of `Cc1cc([C@@H](C)Nc2ccc(Cl)nc2C(=O)NS(C)(=O)=O)c2nc(N3CCC(n4ncc5ccccc54)CC3)n(C)c(=O)c2c1` [Compound 685, (R)-3-((1-(2-(4-(1H-indazol-1-yl)piperidin-1-yl)-3,6-dimethyl-4-oxo-3,4-dihydroquinazolin-8-yl)ethyl)amino)-6-chloro-N-(methylsulfonyl) picolinamide] are 250 to 500 nM and no less than 5000 nM.
`Cc1cnc(C2CCN(c3nc4c([C@@H](C)Nc5ccc(Cl)nc5C(=O)NS(C)(=O)=O)cc(C)cc4c(=O)n3C)CC2)nc1` [Compound 404, (R)-6-chloro-3-((1-(3,6-dimethyl-2-(4-(5-methylpyrimidin-2-yl)piperidin-1-yl)-4-oxo-3,4-dihydroquinazolin-8-yl)ethyl)amino)-N-(methylsulfonyl) picolinamide]: the IC50 in assay [1] (setting [5]) was less than 250 nM; in assay [2] (setting [6]) it was 1000 to 5000 nM.
As to `Cc1cc([C@@H](C)Nc2ccc(Cl)nc2C(=O)NS(C)(=O)=O)c2nc(N3CCC4(CCOCC4)CC3)n(C)c(=O)c2c1` [Compound 690, (R)-6-chloro-3-((1-(3,6-dimethyl-4-oxo-2-(3-oxa-9-azaspiro[5.5]undecan-9-yl)-3,4-dihydroquinazolin-8-yl)ethyl)amino)-N-(methylsulfonyl) picolinamide], the values for the IC50 in assay [1] (setting [3]) and in assay [2] (setting [4]) were less than 250 nM and 1000 to 5000 nM, respectively.
Turning to `Cc1cc([C@@H](C)Nc2ccc(Cl)nc2C(=O)NS(C)(=O)=O)c2nc(N3CCC(c4cnn(C)n4)CC3)n(C)c(=O)c2c1` [Compound 489, (R)-6-chloro-3-((1-(3,6-dimethyl-2-(4-(2-methyl-2H-1,2,3-triazol-4-yl)piperidin-1-yl)-4-oxo-3,4-dihydroquinazolin-8-yl)ethyl)amino)-N-(methylsulfonyl) picolinamide], the results for the IC50 in assay [1] (setting [3]) and in assay [2] (setting [4]) were less than 250 nM and 1000 to 5000 nM, respectively.

Values taken from US12281122B1, “PI3K inhibitors” (Cogent Biosciences, Inc., priority 2023, dated 2025).
